Test results published in ChEMBL document CHEMBL4308841, “Synthesis, in vitro antiproliferative activity, and kinase inhibitory effects of pyrazole-containing diarylureas and diarylamides” (Eur J Med Chem, 2018).

Columns and labels:
Format in all cases: functional
CCRF-CEM = assay: Growth inhibition of human CCRF-CEM cells assessed as cell growth at 10 uM incubated for 48 hrs by sulforhodamine B assay relative to control; conditions: read-out: Activity
K562 = assay: Growth inhibition of human K562 cells assessed as cell growth at 10 uM incubated for 48 hrs by sulforhodamine B assay relative to control; conditions: K562, 48 h, read-out: Activity
MOLT-4 = assay: Growth inhibition of human MOLT4 cells assessed as cell growth at 10 uM incubated for 48 hrs by sulforhodamine B assay relative to control; conditions: MOLT-4, 48 h, read-out: Activity
RPMI-8226 = assay: Growth inhibition of human RPMI8226 cells assessed as cell growth at 10 uM incubated for 48 hrs by sulforhodamine B assay relative to control; conditions: RPMI-8226, 48 h, read-out: Activity
SR = assay: Growth inhibition of human SR cells assessed as cell growth at 10 uM incubated for 48 hrs by sulforhodamine B assay relative to control; conditions: read-out: Activity
HOP-62 = assay: Growth inhibition of human HOP62 cells assessed as cell growth at 10 uM incubated for 48 hrs by sulforhodamine B assay relative to control; conditions: HOP-62, 48 h, read-out: Activity
NCI-H226 = assay: Growth inhibition of human NCI-H226 cells assessed as cell growth at 10 uM incubated for 48 hrs by sulforhodamine B assay relative to control; conditions: NCI-H226, 48 h, read-out: Activity
NCI-H322M = assay: Growth inhibition of human NCI-H322M cells assessed as cell growth at 10 uM incubated for 48 hrs by sulforhodamine B assay relative to control; conditions: read-out: Activity
NCI-H460 = assay: Growth inhibition of human NCI-H460 cells assessed as cell growth at 10 uM incubated for 48 hrs by sulforhodamine B assay relative to control; conditions: NCI-H460, 48 h, read-out: Activity
HCC 2998 = assay: Growth inhibition of human HCC2998 cells assessed as cell growth at 10 uM incubated for 48 hrs by sulforhodamine B assay relative to control; conditions: HCC 2998, 48 h, read-out: Activity
HCT-116 = assay: Growth inhibition of human HCT116 cells assessed as cell growth at 10 uM incubated for 48 hrs by sulforhodamine B assay relative to control; conditions: HCT-116, 48 h, read-out: Activity
HCT-15 = assay: Growth inhibition of human HCT15 cells assessed as cell growth at 10 uM incubated for 48 hrs by sulforhodamine B assay relative to control; conditions: HCT-15, 48 h, read-out: Activity
SF-295 = assay: Growth inhibition of human SF295 cells assessed as cell growth at 10 uM incubated for 48 hrs by sulforhodamine B assay relative to control; conditions: SF-295, 48 h, read-out: Activity
SF-539 = assay: Growth inhibition of human SF539 cells assessed as cell growth at 10 uM incubated for 48 hrs by sulforhodamine B assay relative to control; conditions: SF-539, 48 h, read-out: Activity
SNB-75 = assay: Growth inhibition of human SNB75 cells assessed as cell growth at 10 uM incubated for 48 hrs by sulforhodamine B assay relative to control; conditions: SNB-75, 48 h, read-out: Activity
U-251 = assay: Growth inhibition of human U251 cells assessed as cell growth at 10 uM incubated for 48 hrs by sulforhodamine B assay relative to control; conditions: U-251, 48 h, read-out: Activity
LOX IMVI = assay: Growth inhibition of human LOXIMVI cells assessed as cell growth at 10 uM incubated for 48 hrs by sulforhodamine B assay relative to control; conditions: read-out: Activity
MDA-MB-435 = assay: Growth inhibition of human MDA-MB-435 cells assessed as cell growth at 10 uM incubated for 48 hrs by sulforhodamine B assay relative to control; conditions: MDA-MB-435, 48 h, read-out: Activity
SK-MEL-5 = assay: Growth inhibition of human SK-MEL-5 cells assessed as cell growth at 10 uM incubated for 48 hrs by sulforhodamine B assay relative to control; conditions: SK-MEL-5, 48 h, read-out: Activity
UACC-257 = assay: Growth inhibition of human UACC257 cells assessed as cell growth at 10 uM incubated for 48 hrs by sulforhodamine B assay relative to control; conditions: UACC-257, 48 h, read-out: Activity
UACC-62 = assay: Growth inhibition of human UACC62 cells assessed as cell growth at 10 uM incubated for 48 hrs by sulforhodamine B assay relative to control; conditions: UACC-62, 48 h, read-out: Activity
IGROV-1 = assay: Growth inhibition of human IGROV1 cells assessed as cell growth at 10 uM incubated for 48 hrs by sulforhodamine B assay relative to control; conditions: IGROV-1, 48 h, read-out: Activity
OVCAR-4 = assay: Growth inhibition of human OVCAR4 cells assessed as cell growth at 10 uM incubated for 48 hrs by sulforhodamine B assay relative to control; conditions: OVCAR-4, 48 h, read-out: Activity
OVCAR-5 = assay: Growth inhibition of human OVCAR5 cells assessed as cell growth at 10 uM incubated for 48 hrs by sulforhodamine B assay relative to control; conditions: OVCAR-5, 48 h, read-out: Activity
OVCAR-8 = assay: Growth inhibition of human OVCAR8 cells assessed as cell growth at 10 uM incubated for 48 hrs by sulforhodamine B assay relative to control; conditions: OVCAR-8, 48 h, read-out: Activity
SK-OV-3 = assay: Growth inhibition of human SKOV3 cells assessed as cell growth at 10 uM incubated for 48 hrs by sulforhodamine B assay relative to control; conditions: SK-OV-3, 48 h, read-out: Activity
CAKI-1 = assay: Growth inhibition of human Caki1 cells assessed as cell growth at 10 uM incubated for 48 hrs by sulforhodamine B assay relative to control; conditions: CAKI-1, 48 h, read-out: Activity
UO-31 = assay: Growth inhibition of human UO31 cells assessed as cell growth at 10 uM incubated for 48 hrs by sulforhodamine B assay relative to control; conditions: UO-31, 48 h, read-out: Activity
DU-145 = assay: Growth inhibition of human DU145 cells assessed as cell growth at 10 uM incubated for 48 hrs by sulforhodamine B assay relative to control; conditions: DU-145, 48 h, read-out: Activity
MDA-MB-231 = assay: Growth inhibition of human MDA-MB-231 cells assessed as cell growth at 10 uM incubated for 48 hrs by sulforhodamine B assay relative to control; conditions: MDA-MB-231, 48 h, read-out: Activity
T47D = assay: Growth inhibition of human T47D cells assessed as cell growth at 10 uM incubated for 48 hrs by sulforhodamine B assay relative to control; conditions: read-out: Activity
MDA-MB-468 = assay: Growth inhibition of human MDA-MB-468 cells assessed as cell growth at 10 uM incubated for 48 hrs by sulforhodamine B assay relative to control; conditions: MDA-MB-468, 48 h, read-out: Activity

Compound	growth at 10 µM (CCRF-CEM) [%]	growth at 10 µM (K562) [%]	growth at 10 µM (MOLT-4) [%]	growth at 10 µM (RPMI-8226) [%]	growth at 10 µM (SR) [%]	growth at 10 µM (HOP-62) [%]	growth at 10 µM (NCI-H226) [%]	growth at 10 µM (NCI-H322M) [%]	growth at 10 µM (NCI-H460) [%]	growth at 10 µM (HCC 2998) [%]	growth at 10 µM (HCT-116) [%]	growth at 10 µM (HCT-15) [%]	growth at 10 µM (SF-295) [%]	growth at 10 µM (SF-539) [%]	growth at 10 µM (SNB-75) [%]	growth at 10 µM (U-251) [%]	growth at 10 µM (LOX IMVI) [%]	growth at 10 µM (MDA-MB-435) [%]	growth at 10 µM (SK-MEL-5) [%]	growth at 10 µM (UACC-257) [%]	other results
O=C(Nc1cccc(-n2cc(-c3ccncc3)c(-c3cc(O)cc(Cl)c3)n2)c1)Nc1ccc(Cl)c(C(F)(F)F)c1	9.31	5.24	-18	13.8	-30.6	8.99	41.2	45	3.75	34.3	6.95	5.79	14.3	32.6	24.1	-26.5	2.08	9.57	23.8	-40	growth at 10 µM (UACC-62): -1.44%; growth at 10 µM (IGROV-1): 30.6%; growth at 10 µM (OVCAR-4): 31.6%; growth at 10 µM (OVCAR-5): 59.3%; growth at 10 µM (OVCAR-8): 3.69%; growth at 10 µM (SK-OV-3): 63.1%; growth at 10 µM (CAKI-1): 29.1%; growth at 10 µM (UO-31): 18.5%; growth at 10 µM (DU-145): 18.7%; growth at 10 µM (MDA-MB-231): -47.3%; growth at 10 µM (T47D): 25%; growth at 10 µM (MDA-MB-468): 5.22%
COc1cc(Cl)cc(-c2nn(-c3cccc(NC(=O)c4ccc(Cl)c(Cl)c4)c3)cc2-c2ccncc2)c1	59.2	46.4	54.9	46	43.6	105	66.2	84.5	65.2	77.8	44.1	57.9	36.1	74.5	50.6	64.1	72.8	80.8	78.5	84.2	growth at 10 µM (UACC-62): 75.4%; growth at 10 µM (IGROV-1): 71.6%; growth at 10 µM (OVCAR-4): 58.6%; growth at 10 µM (OVCAR-5): 79.2%; growth at 10 µM (OVCAR-8): 58.4%; growth at 10 µM (SK-OV-3): 80.1%; growth at 10 µM (CAKI-1): 63.6%; growth at 10 µM (UO-31): 43.5%; growth at 10 µM (DU-145): 88.5%; growth at 10 µM (MDA-MB-231): 33.9%; growth at 10 µM (T47D): 63.2%; growth at 10 µM (MDA-MB-468): 54.6%
O=C(Nc1cccc(-n2cc(-c3ccncc3)c(-c3cc(O)cc(Cl)c3)n2)c1)Nc1ccc(Cl)c(Cl)c1	4.11	1.06	-27.1	-15.3	-21.4	-44.2	14.5	19.5	0.21	0.57	-57.3	-25.3	-50.5	-29	4.08	-56.5	-84.7	-33.3	-53	-70.7	growth at 10 µM (UACC-62): -61.8%; growth at 10 µM (IGROV-1): 26%; growth at 10 µM (OVCAR-4): 10.7%; growth at 10 µM (OVCAR-5): -2.26%; growth at 10 µM (OVCAR-8): -14.8%; growth at 10 µM (SK-OV-3): 13.2%; growth at 10 µM (CAKI-1): 5.31%; growth at 10 µM (UO-31): -41.2%; growth at 10 µM (DU-145): -15.1%; growth at 10 µM (MDA-MB-231): -38.1%; growth at 10 µM (T47D): -5.53%; growth at 10 µM (MDA-MB-468): -1.88%
COc1cc(Cl)cc(-c2nn(-c3cccc(NC(=O)Nc4cc(C(F)(F)F)cc(C(F)(F)F)c4)c3)cc2-c2ccncc2)c1	-22	6.4	-24.6	-17.5	-37.9	-41	-5.97	11	0.24	9.5	-4.6	6.21	-43.2	-17.7	11.3	-58	-24	-19.4	-79.4	-25.6	growth at 10 µM (UACC-62): -21.2%; growth at 10 µM (IGROV-1): 23%; growth at 10 µM (OVCAR-4): 11.8%; growth at 10 µM (OVCAR-5): 21.6%; growth at 10 µM (OVCAR-8): -2.46%; growth at 10 µM (SK-OV-3): 6.84%; growth at 10 µM (CAKI-1): 8.99%; growth at 10 µM (UO-31): -0.18%; growth at 10 µM (DU-145): 13.1%; growth at 10 µM (MDA-MB-231): -75%; growth at 10 µM (T47D): 6.56%; growth at 10 µM (MDA-MB-468): -2.95%
